The record followed here is ChEMBL document CHEMBL1201862, “PubChem BioAssay data set” (2004).

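Test compounds were applied to cells in 96-well plates for 48 hours at 5 doses. Here, GI50 denotes the concentration required for 50% inhibition of growth.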 The source made the active and inactive calls. No stated cut-off is given here; in the data, active = GI50 up to about 1.1 µM and inactive = higher. Where only a bound is given, the exact number is not on record here.

Test systems include SNB-19; OVCAR-5; OVCAR-3; NCI-H460; SNB-75; UACC-62; HT-29; SF-295; Malme-3M; NCI-H522; SK-MEL-2; KM12; DMS-114; SF-539; A498; ACHN; CCRF-CEM; A549.
Assay in all cases: growth of human tumour cells (NCI), 48 h

In the case of `NC(=S)N/N=C1\C(=O)N(CCc2ccccc2)C(=O)C1C(=O)NCCc1ccccc1` (stereo not given), the GI50 was > 100 µM (inactive) with SNB-19; > 100 µM (inactive) with OVCAR-5; > 100 µM (inactive) with OVCAR-3; > 100 µM (inactive) with NCI-H460; 20.7 µM (inactive) with SNB-75; > 100 µM (inactive) in the experiment on UACC-62. In addition, the GI50 with HT-29, with SF-295, in the experiment with Malme-3M, with NCI-H522, in the experiment with SK-MEL-2 and in the experiment with KM12 was > 100 µM (inactive) throughout. In addition, the GI50 is 74.8 µM (inactive) in the experiment with DMS-114, > 100 µM (inactive) in the experiment on SF-539, > 100 µM (inactive) in the experiment on A498 and > 100 µM (inactive) in the experiment on ACHN.

Take `O=c1cc(CO)oc2c3c(cc(O)c12)OCC(COC1OC(CO)C(O)C(O)C1O)=CC3` (stereo not given): the GI50 in the experiment on SNB-19, with OVCAR-5, in the experiment on OVCAR-3, in the experiment with NCI-H460, in the experiment with SNB-75 and in the experiment on UACC-62 was > 100 µM (inactive) each time. Moreover, the GI50 in the experiment with HT-29, in the experiment with SF-295, with CCRF-CEM, with A549, in the experiment with NCI-H522 and in the experiment with SK-MEL-2 was > 100 µM (inactive) in each case. Also, the GI50 in the experiment with KM12, in the experiment on DMS-114, in the experiment on SF-539, in the experiment with A498 and with ACHN was > 100 µM (inactive) in each case.

For the compound `CN(CC1NCCCC1O)C12CC3CC(CC(C3)C1)C2` (stereo not given), the GI50 with SNB-19, in the experiment with OVCAR-5, with OVCAR-3, in the experiment on NCI-H460, with UACC-62 and in the experiment with HT-29 was > 100 µM (inactive) in each case. The GI50 in the experiment on SF-295, with CCRF-CEM, in the experiment with Malme-3M, in the experiment with A549, in the experiment on NCI-H522 and in the experiment on KM12 was > 100 µM (inactive) each time. For the same compound, the GI50 in the experiment with DMS-114, in the experiment with SF-539, with A498 and in the experiment on ACHN was > 100 µM (inactive) in each case.

On to `C=C1C(=O)OC2/C=C(\C)C(OC(C)=O)C3OC3C(C)(O)CC(OC(=O)/C(C)=C/C)C12` (stereo not given), for which the GI50 is 18.7 µM (inactive) with SNB-19; 17.4 µM (inactive) with OVCAR-5; 3.9 µM (inactive) in the experiment on OVCAR-3; 15.7 µM (inactive) with NCI-H460; 21.9 µM (inactive) in the experiment on SNB-75; 11 µM (inactive) with UACC-62. The GI50 in the experiment with HT-29 is 14.9 µM (inactive); in the experiment with SF-295, 19.1 µM (inactive); with CCRF-CEM, 2.81 µM (inactive); with Malme-3M it was 8.69 µM (inactive); in the experiment with A549 it was 18.7 µM (inactive); in the experiment on NCI-H522 it was 1.62 µM (inactive). Further, the GI50 in the experiment with SK-MEL-2 is 6.59 µM (inactive); in the experiment on KM12, 14.7 µM (inactive); in the experiment on DMS-114 it was 5.45 µM (inactive); in the experiment with SF-539 it was 3.67 µM (inactive); in the experiment with A498, 15.8 µM (inactive); in the experiment on ACHN, 13.5 µM (inactive).

For the compound `CCOC(=O)/C(O)=C(/c1n[nH]c(=O)c2ccccc12)[N+](=O)[O-]`, the GI50 in the experiment with SNB-19, in the experiment with OVCAR-5, in the experiment on OVCAR-3, in the experiment on NCI-H460, with SNB-75 and in the experiment with UACC-62 was > 100 µM (inactive) in each case. Also, the GI50 in the experiment with HT-29, with SF-295, with CCRF-CEM, with Malme-3M, in the experiment with A549 and in the experiment on NCI-H522 was > 100 µM (inactive) each time. In addition, the GI50 in the experiment with SK-MEL-2, in the experiment on KM12, in the experiment on DMS-114, with SF-539, with A498 and with ACHN was > 100 µM (inactive) each time.

Take `Cc1c2n(c(=O)[nH]c1=O)C1OC(CO)C(N=[N+]=[N-])C1O2` (stereo not given): the GI50 in the experiment on SNB-19, in the experiment on OVCAR-3, with NCI-H460, in the experiment with SNB-75, in the experiment with UACC-62 and in the experiment with HT-29 was > 100 µM (inactive) throughout. Besides, the GI50 with SF-295 is > 100 µM (inactive); in the experiment on CCRF-CEM, > 100 µM (inactive); with A549, > 100 µM (inactive); with NCI-H522, 90.6 µM (inactive); with SK-MEL-2, > 100 µM (inactive); in the experiment with KM12 it was > 100 µM (inactive). The GI50 in the experiment on DMS-114, with SF-539, with A498 and in the experiment on ACHN was > 100 µM (inactive) in each case.

For the compound `C[C@]12CC[C@H](O)CC1CCC[C@@H]2O` (stereo not given in full), the GI50 in the experiment with SNB-19, in the experiment with OVCAR-3, in the experiment on NCI-H460, in the experiment on SNB-75, in the experiment on UACC-62 and with HT-29 was > 100 µM (inactive) each time. The GI50 with SF-295, in the experiment on CCRF-CEM, with Malme-3M, with A549, in the experiment on NCI-H522 and in the experiment with SK-MEL-2 was > 100 µM (inactive) in each case. In addition, the GI50 in the experiment on KM12, in the experiment with DMS-114, with SF-539 and in the experiment on A498 was > 100 µM (inactive) throughout.

`CCO/C=C1\N=C(c2ccc(Cl)c(Cl)c2)OC1=O`: the GI50 is > 100 µM (inactive) in the experiment on SNB-19; > 100 µM (inactive) in the experiment on OVCAR-5; > 100 µM (inactive) in the experiment on OVCAR-3; > 100 µM (inactive) with NCI-H460; 52.1 µM (inactive) in the experiment on SNB-75; > 100 µM (inactive) with UACC-62. Moreover, the GI50 in the experiment on HT-29 is > 100 µM (inactive); in the experiment with SF-295, > 100 µM (inactive); with CCRF-CEM, > 100 µM (inactive); in the experiment on Malme-3M, > 100 µM (inactive); in the experiment with A549, > 100 µM (inactive); in the experiment on NCI-H522, 89.5 µM (inactive). Also, the GI50 in the experiment on SK-MEL-2 was > 100 µM (inactive); in the experiment on KM12 it was > 100 µM (inactive); with DMS-114, 28.4 µM (inactive); in the experiment with SF-539, > 100 µM (inactive); with A498 it was 27 µM (inactive); in the experiment with ACHN it was > 100 µM (inactive).

Regarding `CC(=O)O[C@H]1C(=O)[C@@]2(C)C([C@H](OC(=O)c3ccccc3)[C@]3(O)C[C@H](OC(=O)[C@H](O)[C@H](NC(=O)c4ccccc4)c4ccc(Cl)cc4)C(C)=C1C3(C)C)C1(OC(C)=O)CO[C@@H]1C[C@@H]2O` (stereo not given in full), the GI50 in the experiment on SNB-19 is 0.0304 µM (active); with OVCAR-5, 0.00294 µM (active); with OVCAR-3 it was 0.00222 µM (active); with NCI-H460, 0.000557 µM (active); in the experiment with SNB-75, < 0.0001 µM (active); in the experiment on UACC-62 it was 0.000376 µM (active). The GI50 in the experiment with HT-29 was 0.000106 µM (active); with SF-295, 0.0194 µM (active); in the experiment on CCRF-CEM it was 0.00188 µM (active); in the experiment on Malme-3M, 0.00239 µM (active); in the experiment on A549 it was 0.000678 µM (active); with NCI-H522, 0.000356 µM (active). Further, the GI50 with SK-MEL-2 was 0.00594 µM (active); in the experiment on KM12, 0.000282 µM (active); in the experiment on DMS-114, < 0.0001 µM (active); in the experiment with SF-539, 0.000367 µM (active); in the experiment with A498, 0.0256 µM (active); with ACHN it was 0.261 µM (active).

`c1ccc(C(c2ccccc2)c2ccccn2)cc1`: the GI50 in the experiment on SNB-19 is > 100 µM (inactive); with OVCAR-5, > 100 µM (inactive); in the experiment with OVCAR-3, > 100 µM (inactive); in the experiment on NCI-H460, > 100 µM (inactive); in the experiment with SNB-75 it was 52.5 µM (inactive); in the experiment with UACC-62 it was > 100 µM (inactive). In addition, the GI50 with HT-29, with SF-295, in the experiment with CCRF-CEM, in the experiment with Malme-3M, in the experiment with A549 and in the experiment with SK-MEL-2 was > 100 µM (inactive) in each case. The GI50 with KM12, in the experiment on DMS-114, in the experiment on SF-539, in the experiment with A498 and with ACHN was > 100 µM (inactive) each time.

Turning to `c1ccc2c(c1)[nH]c1c[nH]c3c4cccnc4nc-3c12`, the GI50 is 18.3 µM (inactive) in the experiment with SNB-19; 20.3 µM (inactive) in the experiment with OVCAR-5; 17.1 µM (inactive) with OVCAR-3; 21.5 µM (inactive) in the experiment with NCI-H460; 18.2 µM (inactive) with SNB-75; 15.1 µM (inactive) with UACC-62. Also, the GI50 is 19.3 µM (inactive) in the experiment on HT-29; 23.4 µM (inactive) in the experiment with SF-295; 24.7 µM (inactive) with CCRF-CEM; 25.6 µM (inactive) in the experiment on Malme-3M; 20 µM (inactive) with A549; 19 µM (inactive) with DMS-114. The results for the GI50 with SF-539, with A498 and in the experiment with ACHN were 21.4 µM (inactive), 33.3 µM (inactive) and 11.3 µM (inactive), respectively.
